Here are results for 17 compounds from US20240383905A1, “FGFR INHIBITORS AND METHODS OF USE THEREOF” (3H PHARMACEUTICALS CO., LTD., priority 2021, published 2024).

Where two headings read alike, the source gives them in different places.

Data set [1] concerns SNU16 cells. The data set can be described thus: SNU16 Cancer Cell Line Proliferation Assay (CellTiter-Glo). The settings on record: Homo sapiens, SNU-16, 72 h. The class given is cell-based. An outline of the steps:
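Luminescent ATP read-out after 72 h at 37 °C gave IC50 values; compounds tested as 9 three-fold serial dilutions on 5000 SNU16 cells per well, with DMSO as control.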
For orientation: In ATP-based viability assays light output follows the ATP content of the culture.

Data set [2] in a line: Pharmacokinetics in SD Rat. The class given is in vivo, Sprague-Dawley (SD) rat. Conditions: male SD rat, plasma. As for the experimental part:
Animal studies were done as approved protocols by the Institutional Animal Care and Use Committee at INVIVO Biotech Co., Ltd.
Animal information: Sprague-Dawley (SD) rat, SPF, 6-8 weeks, Male, weight 200-250 g, purchased from Beijing Vital River Lab (Beijing, People's Republic of China).
Formulation: Prepare 1.5 mg/ml and 0.6 mg/ml compound solution in […](20% HPβCD) for PO and IV respectively, dosing immediately after preparation.
Administration: PO and IV;

Data set [3] concerns the target T1, FGFR3 (Homo sapiens, UniProt P22607).
T1 construct: purchased Carna 08-135
The data set can be described thus: FGFR3 Biochemical Caliper Assay (KinEASE-TK kit). The settings on record: ratio FGFR3/FGFR2 of the biochemical assay. In a few lines:
(§1)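 KinEASE-TK HTRF readout: enzyme at 0.2 nM (FGFR1, FGFR3) preincubated 10 min at RT with 10-point 3-fold compound dilutions before TK-substrate/ATP start.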

The target in data set [4] is T2, FGFR1 (Homo sapiens, UniProt P11362).
T2 construct: purchased Carna 08-133
T2 sequence (P11362 22-822): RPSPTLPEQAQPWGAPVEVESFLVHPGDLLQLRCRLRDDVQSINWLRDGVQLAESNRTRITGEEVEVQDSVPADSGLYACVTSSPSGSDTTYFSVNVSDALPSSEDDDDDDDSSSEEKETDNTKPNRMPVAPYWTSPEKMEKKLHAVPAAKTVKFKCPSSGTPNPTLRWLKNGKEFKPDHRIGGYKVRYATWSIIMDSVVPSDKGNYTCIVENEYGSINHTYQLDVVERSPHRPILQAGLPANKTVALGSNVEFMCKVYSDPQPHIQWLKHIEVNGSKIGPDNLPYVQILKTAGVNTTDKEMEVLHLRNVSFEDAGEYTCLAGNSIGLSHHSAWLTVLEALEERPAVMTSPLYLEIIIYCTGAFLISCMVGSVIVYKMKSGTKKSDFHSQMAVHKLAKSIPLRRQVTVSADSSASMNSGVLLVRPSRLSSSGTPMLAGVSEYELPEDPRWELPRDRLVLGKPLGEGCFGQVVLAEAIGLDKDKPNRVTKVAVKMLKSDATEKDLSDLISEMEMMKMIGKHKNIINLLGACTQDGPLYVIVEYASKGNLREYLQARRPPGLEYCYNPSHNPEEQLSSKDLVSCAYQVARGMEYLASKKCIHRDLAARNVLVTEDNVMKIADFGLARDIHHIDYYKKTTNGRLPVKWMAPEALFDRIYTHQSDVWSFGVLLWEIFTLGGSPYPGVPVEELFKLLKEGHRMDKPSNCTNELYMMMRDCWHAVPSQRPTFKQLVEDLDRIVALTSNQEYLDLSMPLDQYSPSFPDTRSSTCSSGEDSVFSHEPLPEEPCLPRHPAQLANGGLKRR
Kind of data set: FGFR1 Biochemical Caliper Assay (KinEASE-TK kit). Conditions: ratio FGFR1/FGFR2 of the biochemical assay. An outline of the steps: as §1

Data set [5] concerns the target T3, FGFR2 (Homo sapiens, UniProt P21802).
T3 construct: purchased Carna 08-134
The data set can be described thus: FGFR2 Biochemical Caliper Assay (KinEASE-TK kit). The settings on record: 0.07 nM FGFR2; compound incubated with protein 10 min, reaction 45 min at RT; read-out: FGFR2 Cliper IC50.

The mark [6] stands for this setting: Sprague-Dawley, PO 15 mg/kg (IV used for Clearance).
[7] abbreviates: Sprague-Dawley, PO 15 mg/kg (IV used for Clearance), read-out: Cmax.
Where [8] appears, read: PO 15 mg/kg (IV used for Clearance).

T1 sequence (P22607 23-806): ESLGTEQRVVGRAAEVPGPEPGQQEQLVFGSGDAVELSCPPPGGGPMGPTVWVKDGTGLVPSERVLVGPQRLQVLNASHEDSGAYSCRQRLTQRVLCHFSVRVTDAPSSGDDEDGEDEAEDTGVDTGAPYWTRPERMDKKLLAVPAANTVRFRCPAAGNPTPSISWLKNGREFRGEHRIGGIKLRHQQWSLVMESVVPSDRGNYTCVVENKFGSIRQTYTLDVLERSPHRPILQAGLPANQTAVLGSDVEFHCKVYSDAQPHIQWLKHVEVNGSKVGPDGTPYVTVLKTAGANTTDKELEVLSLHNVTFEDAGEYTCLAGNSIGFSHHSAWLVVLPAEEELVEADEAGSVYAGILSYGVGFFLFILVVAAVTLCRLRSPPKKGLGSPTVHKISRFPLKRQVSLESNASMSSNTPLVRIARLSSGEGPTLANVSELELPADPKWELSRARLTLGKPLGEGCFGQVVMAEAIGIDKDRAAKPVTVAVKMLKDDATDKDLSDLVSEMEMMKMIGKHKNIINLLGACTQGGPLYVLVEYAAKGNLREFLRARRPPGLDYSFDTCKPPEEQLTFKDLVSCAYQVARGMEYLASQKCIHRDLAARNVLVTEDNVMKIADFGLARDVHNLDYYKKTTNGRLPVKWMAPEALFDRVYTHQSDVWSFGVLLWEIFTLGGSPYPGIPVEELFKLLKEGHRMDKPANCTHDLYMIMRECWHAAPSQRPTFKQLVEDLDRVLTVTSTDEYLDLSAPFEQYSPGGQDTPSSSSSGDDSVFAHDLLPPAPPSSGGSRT
T3 sequence (P21802 22-821): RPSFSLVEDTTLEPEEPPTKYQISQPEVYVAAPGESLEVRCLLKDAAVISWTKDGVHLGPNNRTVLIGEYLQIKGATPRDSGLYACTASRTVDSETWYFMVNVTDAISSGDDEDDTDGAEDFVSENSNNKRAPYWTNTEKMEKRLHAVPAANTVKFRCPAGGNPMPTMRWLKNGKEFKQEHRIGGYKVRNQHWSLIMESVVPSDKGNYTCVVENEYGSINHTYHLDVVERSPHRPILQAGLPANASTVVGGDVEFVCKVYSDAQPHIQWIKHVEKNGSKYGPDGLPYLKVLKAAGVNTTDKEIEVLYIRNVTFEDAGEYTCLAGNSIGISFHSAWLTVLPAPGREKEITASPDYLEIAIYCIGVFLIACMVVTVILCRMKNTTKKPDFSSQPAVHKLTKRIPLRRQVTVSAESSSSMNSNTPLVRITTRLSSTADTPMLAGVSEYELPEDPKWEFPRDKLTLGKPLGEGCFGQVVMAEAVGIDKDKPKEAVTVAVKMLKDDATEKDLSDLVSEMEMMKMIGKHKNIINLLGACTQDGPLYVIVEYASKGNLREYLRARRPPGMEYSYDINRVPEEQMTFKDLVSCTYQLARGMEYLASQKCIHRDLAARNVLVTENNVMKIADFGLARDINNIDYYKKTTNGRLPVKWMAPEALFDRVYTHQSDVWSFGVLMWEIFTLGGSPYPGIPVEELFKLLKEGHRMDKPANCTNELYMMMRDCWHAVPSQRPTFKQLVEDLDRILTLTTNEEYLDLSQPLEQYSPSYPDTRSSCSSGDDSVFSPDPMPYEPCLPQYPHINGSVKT

In the case of `C=C(C)C(=O)Nc1ccc(-c2c(-c3ccc(Oc4nccc(C)n4)c(F)c3)c3c(N)ncnc3n2C)cc1` [Compound 0, N-(4-(4-amino-5-(3-fluoro-4-((4-methylpyrimidin-2-yl)oxy)phenyl)-7-methyl-7H-pyrrolo[2,3-d]pyrimidin-6-yl)phenyl)methacrylamide, reference compound], the IC50 in data set [1] is at most 10 nM. In data set [2] (Sprague-Dawley, IV 3 mg/kg), this compound came in with a clearance of 49 mL/min/kg. In data set [2] (setting [6]), this compound showed an AUC(0-inf) of 614 ng·h/mL and a half-life of 1.5 h. Moreover, the Cmax in data set [2] (setting [7]) was 244 ng/mL.
On to `C=CC(=O)Nc1ccc(-c2c(-c3ccc(C(=O)NCC(F)(F)F)c(OC)c3)c3c(N)ncc(C#N)c3n2C)cc1` [Compound 28, 4-(2-(4-acrylamidophenyl)-4-amino-7-cyano-1-methyl-1H-pyrrolo[3,2-c]pyridin-3-yl)-2-methoxy-N-(2,2,2-trifluoroethyl)benzamide], for which the “Selectivity FGFR3/FGFR2” value in data set [3] is “B (Selectivity of FGFR3/FGFR2 less than 100 but greater than or equal to 25)”. The figures for the IC50 in data set [1] and in data set [5] were at most 10 nM and below 5 nM, respectively. In addition, the “Selectivity FGFR1/FGFR2” value in data set [4] was “A (Selectivity of FGFR1/FGFR2 less than 500 but greater than or equal to 300)”. In data set [2] (Sprague-Dawley, IV 3 mg/kg), the clearance amounted to 19 mL/min/kg. In addition, the AUC(0-inf) in data set [2] (setting [6]) was determined as 1240 ng·h/mL. Also, in data set [2] (setting [6]), the half-life was 0.98 h. The highest concentration (Cmax) in data set [2] (setting [7]) was found to be 509 ng/mL.
As for `C=C(F)C(=O)Nc1ccc(-c2nn3ncnc(N)c3c2-c2ccc(C(=O)NCC(F)(F)F)c(OC)c2)cc1` [Compound 71, 4-(4-amino-6-(4-(2-fluoroacrylamido)phenyl)pyrazolo[5,1-f][1,2,4]triazin-5-yl)-2-methoxy-N-(2,2,2-trifluoroethyl)benzamide], in data set [2] (Sprague-Dawley, IV 3 mg/kg), the clearance turned out to be 18 mL/min/kg. Besides, in data set [2] (setting [6]), the AUC(0-inf) is 3230 ng·h/mL and the half-life is 1.8 h. Further, the Cmax in data set [2] (setting [7]) worked out at 1300 ng/mL.
In data set [2] (Sprague-Dawley, IV 3 mg/kg), `C=C(F)C(=O)Nc1ccc(-c2nn3ncnc(N)c3c2-c2ccc(C(=O)NC3CC(F)(F)C3)c(OC)c2)cc1` [Compound 99] returned a clearance of 18 mL/min/kg. In data set [2] (setting [6]), this compound gave a total exposure AUC(0-inf) of 3080 ng·h/mL and a half-life of 1.4 h. The Cmax in data set [2] (setting [7]) is 2360 ng/mL.
Take `C=C(F)C(=O)Nc1ccc(-c2nn3ncnc(N)c3c2-c2ccc(C(=O)NC34CC(C3)C4)c(OC)c2)cc1` [Compound 270, 4-(4-amino-6-(4-(2-fluoroacrylamido)phe-nyl)pyrazolo[5,1-f][1,2,4]triazin-5-yl)-N-(bicyclo[1.1.1]pentan-1-yl)-2-methoxybenzamide]: the Cl in data set [2] (IV 3 mg/kg) is 18 mL/min/kg. For the same compound, in data set [2] (setting [8]), the “AUC0-∞” value was found to be 3384 ng·h/mL, the Cmax worked out at 978 ng/mL and the T1/2 was 2 h.
In the case of `C=C(F)C(=O)Nc1ccc(-c2[nH]c3c(C#N)cnc(N)c3c2-c2ccc(C(=O)NCC(F)(F)F)c(OC)c2)cc1` [Compound 302], the clearance in data set [2] (Sprague-Dawley, IV 3 mg/kg) worked out at 3.4 mL/min/kg. In data set [2] (setting [6]), this compound had an AUC(0-inf) of 1510 ng·h/mL and a half-life of 2.7 h. For the same compound, the Cmax in data set [2] (setting [7]) was 615 ng/mL.
Compound `C=C(F)C(=O)Nc1ccc(-c2nn3ncnc(N)c3c2-c2ccc(C(=O)NCCC(F)(F)F)c(OC)c2)cc1` [Compound 310] gave a clearance in data set [2] (Sprague-Dawley, IV 3 mg/kg) of 16 mL/min/kg. In data set [2] (setting [6]), this compound gave an AUC(0-inf) of 2970 ng·h/mL and a half-life of 1.1 h. Besides, the maximum concentration (Cmax) in data set [2] (setting [7]) worked out at 1190 ng/mL.
Regarding `C=CC(=O)Nc1ccc(-c2c(-c3ccc(Oc4ncccn4)c(F)c3)c3c(N)ncc(C#N)c3n2C)cc1` [Compound 443, N-(4-(4-amino-7-cyano-3-(3-fluoro-4-(pyrimidin-2-yloxy)phenyl)-1-methyl-1H-pyrrolo[3,2-c]pyridin-2-yl)phenyl)acrylamide], the “Selectivity FGFR3/FGFR2” value in data set [3] was “B (Selectivity of FGFR3/FGFR2 less than 100 but greater than or equal to 25)”. The figures for the IC50 in data set [1] and in data set [5] were at most 10 nM and below 5 nM, respectively. Further, the “Selectivity FGFR1/FGFR2” value in data set [4] is reported as “C (Selectivity of FGFR1/FGFR2 less than 200 but greater than or equal to 100)”.
Turning to `C=C(C)C(=O)Nc1ccc(-c2nn3ncnc(N)c3c2-c2ccc(Oc3nccc(C)n3)c(F)c2)c(C)c1` [Compound 450], the “Selectivity FGFR3/FGFR2” value in data set [3] was “B (Selectivity of FGFR3/FGFR2 less than 100 but greater than or equal to 25)”. The figures for the IC50 in data set [1] and in data set [5] were at most 10 nM and above 10 nM, respectively. For the same compound, the “Selectivity FGFR1/FGFR2” value in data set [4] is listed as “A+ (Selectivity of FGFR1/FGFR2 greater or equal to 500)”.
The matching figures for `C=C(C)C(=O)Nc1ccc(-c2nn3ncnc(N)c3c2-c2ccc(Oc3nccc(C)n3)c(F)c2)c(Cl)c1` [Compound 451]: “B (Selectivity of FGFR3/FGFR2 less than 100 but greater than or equal to 25)”, at most 10 nM, below 5 nM and “A (Selectivity of FGFR1/FGFR2 less than 500 but greater than or equal to 300)”.
The matching figures for `C=C(C)C(=O)Nc1ccc(-c2c(-c3ccc(Oc4nccc(C)n4)cc3)c3c(N)ncc(C#N)c3n2C)c(F)c1` [Compound 467, N-(4-(4-amino-7-cyano-1-methyl-3-(4-((4-methylpyrimidin-2-yl)oxy)phenyl)-1H-pyrrolo[3,2-c]pyridin-2-yl)-3-fluorophenyl) methacrylamide]: “A+ (Selectivity of FGFR3/FGFR2 greater or equal to 150)”, at most 10 nM, above 10 nM and “A+ (Selectivity of FGFR1/FGFR2 greater or equal to 500)”.
`C=C(C)C(=O)Nc1ccc(-c2c(-c3ccc(Oc4cccc(C)n4)cc3)c3c(N)ncc(C#N)c3n2C)c(F)c1` [Compound 468, N-(4-(4-amino-7-cyano-1-methyl-3-(4-((6-methylpyridin-2-yl)oxy)phenyl)-1H-pyrrolo[3,2-c]pyridin-2-yl)-3-fluorophenyl) methacrylamide]: in data set [3], the “Selectivity FGFR3/FGFR2” value is on record as “A+ (Selectivity of FGFR3/FGFR2 greater or equal to 150)”. Moreover, the half-inhibitory concentration (IC50) is at most 10 nM in data set [1] and above 10 nM in data set [5]. Also, the “Selectivity FGFR1/FGFR2” value in data set [4] was “A+ (Selectivity of FGFR1/FGFR2 greater or equal to 500)”.
The matching figures for `C=C(C)C(=O)Nc1ccc(-c2c(-c3ccc(Oc4nccc(C)n4)c(F)c3)c3c(N)ncc(C#N)c3n2C)c(Cl)c1` [Compound 473, N-(4-(4-amino-7-cyano-3-(3-fluoro-4-((4-methylpyrimidin-2-yl)oxy)phenyl)-1-methyl-1H-pyrrolo[3,2-c]pyridin-2-yl)-3-chlorophenyl)methacrylamide]: “A+ (Selectivity of FGFR3/FGFR2 greater or equal to 150)”, at most 10 nM, below 5 nM and “A+ (Selectivity of FGFR1/FGFR2 greater or equal to 500)”.
For `C=C(C)C(=O)Nc1ccc(-c2c(-c3ccc(Oc4nccc(C)n4)cc3)c3c(N)ncc(C#N)c3n2C)c(Cl)c1` [Compound 474, N-(4-(4-amino-7-cyano-1-methyl-3-(4-((4-methylpyrimidin-2-yl)oxy)phenyl)-1H-pyrrolo[3,2-c]pyridin-2-yl)-3-chlorophenyl)methacrylamide] the same measures were “A+ (Selectivity of FGFR3/FGFR2 greater or equal to 150)”, at most 10 nM, 5 to 10 nM and “A+ (Selectivity of FGFR1/FGFR2 greater or equal to 500)”.
With `C=C(C)C(=O)Nc1ccc(-c2c(-c3ccc(Oc4nccc(C)n4)cc3)c3c(N)ncc(C#N)c3n2C)c(C)c1` [Compound 488, N-(4-(4-amino-7-cyano-1-methyl-3-(4-((4-methylpyrimidin-2-yl)oxy)phenyl)-1H-pyrrolo[3,2-c]pyridin-2-yl)-3-methylphenyl)methacrylamide], in data set [3], the “Selectivity FGFR3/FGFR2” value is reported as “A+ (Selectivity of FGFR3/FGFR2 greater or equal to 150)”. In addition, the IC50 in data set [1] was at most 10 nM; in data set [5], above 10 nM. Besides, in data set [4], the “Selectivity FGFR1/FGFR2” value was “A+ (Selectivity of FGFR1/FGFR2 greater or equal to 500)”.
For `C=CC(=O)Nc1ccc(-c2c(-c3cc(F)c(Oc4ncc(F)c(C)n4)c(F)c3)c3c(N)ncc(C#N)c3n2C)cc1` [Compound 497], the “Selectivity FGFR3/FGFR2” value in data set [3] is given as “A+ (Selectivity of FGFR3/FGFR2 greater or equal to 150)”. Besides, the half-maximal inhibitory concentration (IC50) in data set [1] was at most 10 nM; in data set [5], below 5 nM. In data set [4], the “Selectivity FGFR1/FGFR2” value is reported as “A+ (Selectivity of FGFR1/FGFR2 greater or equal to 500)”.
With `C=C(C)C(=O)Nc1ccc(-c2c(-c3ccc(Oc4nccc(C)n4)c(F)c3)c3c(N)ncc(C#N)c3n2C)c(C)c1` [Compound 501, N-(4-(4-amino-7-cyano-3-(3-fluoro-4-((4-methylpyrimidin-2-yl)oxy)phenyl)-1-methyl-1H-pyrrolo[3,2-c]pyridin-2-yl)-3-methylphenyl)methacrylamide], the “Selectivity FGFR3/FGFR2” value in data set [3] is recorded as “A+ (Selectivity of FGFR3/FGFR2 greater or equal to 150)”. Moreover, the concentration for half-maximal inhibition (IC50) in data set [1] was at most 10 nM; in data set [5] it was above 10 nM. Moreover, the “Selectivity FGFR1/FGFR2” value in data set [4] is recorded as “A+ (Selectivity of FGFR1/FGFR2 greater or equal to 500)”.

As usually defined, the IC50 is the concentration that gives 50% inhibition. For orientation: clearance means a measure of how efficiently the substance is removed, as volume per time. A higher clearance goes with efficient removal. The AUC(0-inf) is the area under the concentration-time curve extrapolated to infinity. Read a high AUC(0-inf) as high exposure. What is called half-life is the time in which the quantity being followed falls by half. The term Cmax denotes the highest concentration seen after dosing.
